# Experimental data taken from US9890103B2, “Process for the production of (meth)acrylic acid and derivatives and polymers produced therefrom” (Lucite International UK Limited, priority 2011, dated 2018).
# Legend:
# [1] = Extraction of acrylic and maleic acid into toluene/butanone mixtures; format: physicochemical; details: 0.1M aq solution, equal volume
# Procedure: (§1) The following experimental conditions were used unless indicated otherwise:— • 0.1M Acids • 1:1 vol:vol aq:solvent • Room Temperature • 1 minutes agitation time; 5 min settling time • Solvent is toluene unless where stated • Analysis by HPLC
# In order to increase the solubility of the AA in the organic layer a higher polarity is likely to be required. The extraction of a 0.1M aq AA solution was studied with an equal volume of a mixture between toluene and butanone.
# [2] = Extraction of mono- and dibasic acids from 0.1M aqueous solution into toluene or MMA/toluene mixtures; format: physicochemical; details: for degree of extraction: equal volume, in %; for Fraction Transferred to Toluene: each acid 0.1M in water, equal volume of toluene
# Procedure: as §1
# Monobasic and dibasic acids likely to be present in aqueous solution following partial decomposition of mono and dicarboxylic acids expected to be found from decomposition of dibasic or tribasic acids were compared for their solubility in toluene.
# Each acid, initially at 0.1M solution in water was separately tested for solubility in an equal volume of toluene.
# Aqueous solutions were prepared of each of the dicarboxylic acids exemplified in comparative example 2. These were extracted with an equal volume of solvent mixtures of toluene and methyl methacrylate (MMA).
# In order to compare the solubilities in the organic solvents in terms of partition coefficients each sample was converted to a partition coefficient based on the equation: [MAA]solv=K[MAA]^2aq
# [3] = 2-butanone:o-xylene 75:25; reported maximum; cited from earlier work
# [4] = Concentration dependence of MAA extraction into toluene; format: physicochemical; details: toluene/water, fitted to table 3 data
# Procedure: as §1
# A series of different concentrations of MAA in aqueous solution were extracted into toluene (1:1 by volume vs aqueous solution).
# The fraction transferred increases with the concentration of MAA. The data from table 3 were plotted according to the equation: [MAA]tol=K[MAA]^2aq and the value K in the equation was evaluated as 14.6. The results are plotted in FIG. 1.
# [5] = MAA extraction into 2-butanone/o-xylene 75:25; format: physicochemical; details: 2-butanone:o-xylene 75:25
# From the text: The efficiency of MAA extraction into a mixture of 2-butanone and o-xylene in the ratio 75:25 was studied.
# [6] = Solvent screen: transfer of methacrylic acid from aqueous solution into organic solvents; format: physicochemical; details: 0.1M MAA aq, 1:1 vol:vol, room temperature
# Procedure: as §1
# A series of solvents were tested to examine the extent of transfer of methacrylic acid from an aqueous solution using the above procedure.
# [7] = MAA extraction into toluene with added NaOH and added di/tricarboxylic acids; format: physicochemical; details: for amount of MAA transferred into toluene: 0.1M MAA aq, equivalent volume toluene
# Procedure: The following experimental conditions were used unless indicated otherwise:— • 0.1M Acids • 1:1 vol:vol aq:solvent • Room Temperature • 1 minutes agitation time; 5 min settling time • Solvent is toluene unless where stated • Analysis by HPLC […] The results are shown in the first two rows of table 5 […] Very similar results were obtained. […] The aqueous solution was extracted with an equal volume of toluene at room temperature.
# [8] = Fraction of MMA in MMA/Toluene solvent mixture 0
# [9] = Fraction of MMA in MMA/Toluene solvent mixture 0.1
# [10] = Fraction of MMA in MMA/Toluene solvent mixture 0.2
# [11] = Fraction of MMA in MMA/Toluene solvent mixture 0.3
# [12] = Fraction of MMA in MMA/Toluene solvent mixture 0.4
# [13] = Fraction of MMA in MMA/Toluene solvent mixture 0.5
# [14] = Fraction of MMA in MMA/Toluene solvent mixture 0.6
# [15] = Fraction of MMA in MMA/Toluene solvent mixture 0.7
# [16] = Fraction of MMA in MMA/Toluene solvent mixture 0.8
# [17] = Fraction of MMA in MMA/Toluene solvent mixture 0.9
# [18] = Fraction of MMA in MMA/Toluene solvent mixture 1
Structure (SMILES),"degree of extraction [2, 8]","degree of extraction [2, 9]","degree of extraction [2, 10]","degree of extraction [2, 11]","degree of extraction [2, 12]","degree of extraction [2, 13]","degree of extraction [2, 14]","degree of extraction [2, 15]","degree of extraction [2, 16]","degree of extraction [2, 17]","degree of extraction [2, 18]",Fraction Transferred to Toluene [2] [%],other results
C=CC(=O)O [Acrylic acid],,,,,,,,,,,,,% extracted ([1]; 0 % Butanone in toluene): 5.01%; % extracted ([1]; 10 % Butanone in toluene): 14.57%; % extracted ([1]; 20 % Butanone in toluene): 25.26%; % extracted ([1]; 30 % Butanone in toluene): 35.45%; % extracted ([1]; 40 % Butanone in toluene): 44.14%; % extracted ([1]; 50 % Butanone in toluene): 53.47%; % extracted ([1]; 60 % Butanone in toluene): 57.31%; % extracted ([1]; 70 % Butanone in toluene): 63.39%; % extracted ([1]; 80 % Butanone in toluene): 67.47%; % extracted ([1]; 90 % Butanone in toluene): 70.04%; % extracted ([1]; 100 % Butanone): 65.56%
"C/C=C/C(=O)O [CT, Crotonic Acid]",40.11,46.72,49.88,53.62,56.56,61.15,64.67,68.07,70.86,73.21,75.05,40.11,
"CC(C)(O)C(=O)O [HIB, Hydroxyisobutyric Acid]",4.21,4.8,5.14,6.38,4.82,5.76,7.32,19.71,21.47,23.32,23.9,4.21,
"C=C(CC(=O)O)C(=O)O [IC, Itaconic Acid]",0,0,0.29,0.81,1.69,2.89,4.34,6.56,9.57,13.1,17.58,0,
"C=C(C)C(=O)O [MAA, Methacrylic Acid]",54.4,58.85,63.01,67.25,70.31,74.28,76.77,79.42,81.42,83.02,84.28,54.4,"distribution coefficient for MAA, K [3]: ~7.00; K in [MAA]tol=K[MAA]^2aq [4]: 14.6; MAA extracted into the organic phase [5]: roughly 80%; Average % Transfer ([6]; solvent Benzene): 50.1%; Average % Transfer ([6]; solvent Cyclohexane): 26.9%; Average % Transfer ([6]; solvent Hexane): 27.6%; Average % Transfer ([6]; solvent MMA): 84.3%; Average % Transfer ([6]; solvent Mixed Xylenes): 45.3%; Average % Transfer ([6]; solvent Pentane): 28.3%; Average % Transfer ([6]; solvent Toluene): 48.2%; MAA extraction into toluene ([7]; 0.1M MAA + 0.05M NaOH + itaconic acid to 0.1M): 44.7%; amount of MAA transferred into toluene ([7]; after addition of 0.05M sodium hydroxide): 26%; amount of MAA transferred into toluene ([7]; before NaOH addition): 48%"
O=C(O)/C=C\C(=O)O [Maleic acid],,,,,,,,,,,,,% extracted ([1]; 0 % Butanone in toluene): 0%; % extracted ([1]; 10 % Butanone in toluene): 0.32%; % extracted ([1]; 20 % Butanone in toluene): 1.46%; % extracted ([1]; 30 % Butanone in toluene): 3.41%; % extracted ([1]; 40 % Butanone in toluene): 5.19%; % extracted ([1]; 50 % Butanone in toluene): 10.62%; % extracted ([1]; 60 % Butanone in toluene): 10.77%; % extracted ([1]; 70 % Butanone in toluene): 15.01%; % extracted ([1]; 80 % Butanone in toluene): 19.88%; % extracted ([1]; 90 % Butanone in toluene): 27.09%; % extracted ([1]; 100 % Butanone): 34.32%

# Second part, led by results:
"degree of extraction [2, 8]","degree of extraction [2, 9]","degree of extraction [2, 10]","degree of extraction [2, 11]","degree of extraction [2, 12]","degree of extraction [2, 13]","degree of extraction [2, 14]","degree of extraction [2, 15]","degree of extraction [2, 16]","degree of extraction [2, 17]","degree of extraction [2, 18]",Fraction Transferred to Toluene [2] [%],Structure (SMILES),other results
0.64,1.72,4.5,8.26,13.02,20.56,27.82,38.06,47.19,56.33,63.45,0.64,"C/C(=C\C(=O)O)C(=O)O [MC, Mesaconic Acid]",
0,0,0.3,0.7,1.17,2.07,3.01,4.17,5.57,8.05,10.71,0,"CC(=O)C(=O)O [PY, Pyruvic Acid]",
